The text below walks through data of paper PMC13422867, “An orally available PfPKG inhibitor blocks Plasmodium’s infection of the liver” (PLOS Pathogens, 2026).

Structures are written as SMILES.

The test system of data set [1] is PfPKG. Conditions: cited from earlier work.
In data set [2] the target is T1, ROCK2 (Homo sapiens, UniProt O75116).
T1 construct: purchased Eurofins (DiscoverX)
Kind of data set: KdElect binding affinity assay. Conditions: read-out: ROCK2 Experimental Kd. As for the experimental part: (§1) Off-target kinase inhibition was assessed using the DiscoverX scanMAX (Eurofins) panel at 1 µM compound concentration. Binding affinities of CIT, ROCK1 and ROCK2 were evaluated using the KdElect assay (Eurofins).

Data set [3] addresses T2, CIT (Homo sapiens, UniProt O14578).
T2 construct: purchased Eurofins (DiscoverX)
Kind of data set: KdElect binding affinity assay. Conditions: read-out: CIT Experimental Kd. Here is the method:
as §1

Data set [4] is described as follows: Cellular cytotoxicity, hepatocyte nuclear counts. The data set is classed as cell-based, simian. Conditions: simian, primary cryopreserved simian hepatocytes (lot OQB); cellular cytotoxicity. The source says: (§2) Primary cryopreserved hepatocytes were selected based on host-parasite compatibility: primary simian hepatocytes (lot OQB) for P. cynomolgi and human hepatocytes (lot BGW) for P. falciparum (BioIVT Inc., Baltimore, MD, USA). Cells were thawed according to the manufacturer’s protocol and seeded into 384-well collagen-coated assay plates (Greiner Bio-One, Monroe, NC, USA) using InVitroGro CP plating medium (BioIVT). Seeding densities were optimized for uniform monolayer formation, and hepatocytes were allowed to adhere for 24–48 hours before infection. Sporozoites were added at a 1:1.1 hepatocyte-to-sporozoite ratio within 48 hours post-seeding. Automated robotic systems were used for media changes and compound additions to ensure assay consistency and minimize variability associated with manual pipetting.
Test compounds (PfPKG inhibitors) and assay drug controls (KDU-691 and tafenoquine) were solubilized in DMSO or PBS and serially diluted into 8- or 12-point, 2- or 3-fold series, achieving final assay concentrations ranging from 20 µM to 0.019 µM. Compounds were introduced using a calibrated pin tool controlled by robotic arms (V&P Scientific), ensuring a 1:1000 dilution into assay wells. Media were replenished daily with fresh drug-containing HCM. Compounds were added 1-hour post-infection (p.i.) (day 0) and administered daily for 3 days. Cells were fixed on day 6 p.i. of P. falciparum culture and day 8 for P. cynomolgi infected culture, coinciding with liver stage schizont maturation.
High-content imaging was performed using the Operetta CLS system (Revvity) and image analysis was performed with Harmony software version 4.9 (Revvity, Waltham, MA, USA). Images were acquired at 10x or 20x magnification using DAPI and TRITC fluorescence channels. Following the established protocol, parasites were classified as hypnozoites or schizonts based on fluorescence intensity (mean and maximum), morphological features (cell roundness and size), and segmentation criteria. Hepatocyte nuclei were identified using Hoechst 33342 staining. Background signal was captured in uninfected, stained wells and subjected to the same parasite detection algorithm. Estimate erroneous parasite counts were then subtracted from infected well counts. Hepatocyte viability was determined by quantifying nuclear counts per well using Hoechst stain intensity thresholds. […] An in-house built Python-based image analysis script identified parasite objects using predefined fluorescence intensity thresholds. […] Parasite size was quantified by calculating the average object area (µm²) of validated parasite structures per well. […] Dose-response inhibition and IC50 were calculated relative to in-plate negative controls (DMSO-treated wells). […]

Data set [5] relates to P. cynomolgi schizont. Description: Schizont formation in primary simian hepatocytes, high-content imaging. The data set is classed as cell-based, Plasmodium cynomolgi. To be noted: Plasmodium cynomolgi, Hepatocyte. As for the experimental part: (§3) Liver stage antimalarial activity was evaluated using sporozoites from P. falciparum (NF54 strain) and P. cynomolgi bastianellii (B strain). P. falciparum-infected Anopheles stephensi mosquitoes were reared at WRAIR, while P. cynomolgi-infected Anopheles dirus mosquitoes were obtained from the Armed Forces Research Institute of Medical Sciences (AFRIMS), Thailand. Sporozoites were isolated by dissecting salivary glands under sterile conditions, followed by gentle mechanical disruption. Freshly isolated sporozoites were immediately used for hepatocyte infection.
as §2
(§4) Test compounds (PfPKG inhibitors) and assay drug controls (KDU-691 and tafenoquine) were solubilized in DMSO or PBS and serially diluted into 8- or 12-point, 2- or 3-fold series, achieving final assay concentrations ranging from 20 µM to 0.019 µM. Compounds were introduced using a calibrated pin tool controlled by robotic arms (V&P Scientific), ensuring a 1:1000 dilution into assay wells. Media were replenished daily with fresh drug-containing HCM. […]
(§5) Cells were fixed using 4% paraformaldehyde for 20 minutes at room temperature, followed by three PBS washes, and stored at 4°C until further processing. Parasite detection was performed using species-specific primary antibodies, with P. cynomolgi parasites labeled using a mouse monoclonal anti-Plasmodium GAPDH antibody (1.6 μg/mL, European Malaria Reagent Repository) and P. falciparum parasites detected using a rabbit polyclonal anti-PfHSP70 antibody (1:70 dilution, LS Bio, USA). […]
(§6) High-content imaging was performed using the Operetta CLS system (Revvity) and image analysis was performed with Harmony software version 4.9 (Revvity, Waltham, MA, USA). Images were acquired at 10x or 20x magnification using DAPI and TRITC fluorescence channels. Following the established protocol, parasites were classified as hypnozoites or schizonts based on fluorescence intensity (mean and maximum), morphological features (cell roundness and size), and segmentation criteria. […]

Data set [6] deals with P. falciparum CamWT and CamC580Y. Conditions: ring-stage assays; cited from earlier work.
Data set [7] addresses T3, ROCK1 (Homo sapiens, UniProt Q13464).
T3 construct: purchased Eurofins (DiscoverX)
Kind of data set: DiscoverX scanMAX competition binding at 1 µM. Conditions: 1 μM compound. Here is the method: (§7) A major issue affecting the further development of RUPB-61 is its human-kinome selectivity. To identify its significant off-target liabilities, we quantified its binding affinity for 400 unique human kinases (S4 Fig). The screen consists of binding competitions between the test compound and control ligands for each of the target human kinases.
as §1

Data set [8] concerns the target T1, ROCK2. Kind of data set: DiscoverX scanMAX competition binding at 1 µM. To be noted: 1 μM compound. Here is the method:
as §7, §1

The target of data set [9] is T2, CIT. Description: DiscoverX scanMAX competition binding at 1 µM. To be noted: 1 μM compound. As for the experimental part:
as §7, §1

The conditions of data set [10]: in vitro; cited from earlier work.
Data set [11] has as its system P. cynomolgi hypnozoite. Description: Hypnozoite formation in primary simian hepatocytes, high-content imaging. The data set is classed as cell-based, Plasmodium cynomolgi. To be noted: Plasmodium cynomolgi, Hepatocyte. Here is the method: as §3, §2, §4, §5, §6
For data set [12], the system named is P. berghei sporozoites infecting HepG2 cells. To be noted: cited from earlier work.

T1 sequence (O75116 whole entry): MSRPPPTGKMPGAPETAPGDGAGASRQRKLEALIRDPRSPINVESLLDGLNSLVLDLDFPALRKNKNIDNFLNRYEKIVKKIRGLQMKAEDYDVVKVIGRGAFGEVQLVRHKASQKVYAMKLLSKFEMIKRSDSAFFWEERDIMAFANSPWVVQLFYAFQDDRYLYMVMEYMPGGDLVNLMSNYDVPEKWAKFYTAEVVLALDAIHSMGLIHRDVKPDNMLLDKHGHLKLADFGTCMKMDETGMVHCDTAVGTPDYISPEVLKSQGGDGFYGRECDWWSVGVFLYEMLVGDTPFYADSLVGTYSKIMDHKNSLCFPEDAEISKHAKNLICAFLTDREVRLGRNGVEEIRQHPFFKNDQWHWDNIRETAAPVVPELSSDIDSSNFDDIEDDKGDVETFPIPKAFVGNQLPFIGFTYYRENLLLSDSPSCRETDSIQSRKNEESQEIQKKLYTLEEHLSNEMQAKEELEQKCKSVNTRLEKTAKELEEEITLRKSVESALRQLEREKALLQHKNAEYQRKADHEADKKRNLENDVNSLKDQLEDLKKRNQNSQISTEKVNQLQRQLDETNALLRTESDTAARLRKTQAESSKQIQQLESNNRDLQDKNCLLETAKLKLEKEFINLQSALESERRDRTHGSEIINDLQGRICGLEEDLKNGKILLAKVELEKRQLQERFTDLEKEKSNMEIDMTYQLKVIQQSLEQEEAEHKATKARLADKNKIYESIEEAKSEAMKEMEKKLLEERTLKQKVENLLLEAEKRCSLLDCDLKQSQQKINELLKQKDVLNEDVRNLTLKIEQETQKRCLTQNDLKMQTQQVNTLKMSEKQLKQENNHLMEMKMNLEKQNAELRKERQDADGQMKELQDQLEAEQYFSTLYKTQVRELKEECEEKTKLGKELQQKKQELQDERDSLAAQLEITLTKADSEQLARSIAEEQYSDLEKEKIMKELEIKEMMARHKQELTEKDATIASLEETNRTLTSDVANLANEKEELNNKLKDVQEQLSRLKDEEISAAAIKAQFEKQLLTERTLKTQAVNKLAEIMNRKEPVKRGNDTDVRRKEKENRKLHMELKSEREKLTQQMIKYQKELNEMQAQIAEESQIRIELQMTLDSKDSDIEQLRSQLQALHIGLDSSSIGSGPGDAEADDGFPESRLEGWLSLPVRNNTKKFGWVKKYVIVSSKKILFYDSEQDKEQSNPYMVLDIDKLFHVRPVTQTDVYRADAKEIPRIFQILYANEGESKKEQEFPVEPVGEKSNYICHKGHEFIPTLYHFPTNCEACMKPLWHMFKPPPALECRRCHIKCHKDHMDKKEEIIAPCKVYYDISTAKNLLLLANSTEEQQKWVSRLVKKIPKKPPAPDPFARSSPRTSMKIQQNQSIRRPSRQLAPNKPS
T2 sequence (O14578 whole entry): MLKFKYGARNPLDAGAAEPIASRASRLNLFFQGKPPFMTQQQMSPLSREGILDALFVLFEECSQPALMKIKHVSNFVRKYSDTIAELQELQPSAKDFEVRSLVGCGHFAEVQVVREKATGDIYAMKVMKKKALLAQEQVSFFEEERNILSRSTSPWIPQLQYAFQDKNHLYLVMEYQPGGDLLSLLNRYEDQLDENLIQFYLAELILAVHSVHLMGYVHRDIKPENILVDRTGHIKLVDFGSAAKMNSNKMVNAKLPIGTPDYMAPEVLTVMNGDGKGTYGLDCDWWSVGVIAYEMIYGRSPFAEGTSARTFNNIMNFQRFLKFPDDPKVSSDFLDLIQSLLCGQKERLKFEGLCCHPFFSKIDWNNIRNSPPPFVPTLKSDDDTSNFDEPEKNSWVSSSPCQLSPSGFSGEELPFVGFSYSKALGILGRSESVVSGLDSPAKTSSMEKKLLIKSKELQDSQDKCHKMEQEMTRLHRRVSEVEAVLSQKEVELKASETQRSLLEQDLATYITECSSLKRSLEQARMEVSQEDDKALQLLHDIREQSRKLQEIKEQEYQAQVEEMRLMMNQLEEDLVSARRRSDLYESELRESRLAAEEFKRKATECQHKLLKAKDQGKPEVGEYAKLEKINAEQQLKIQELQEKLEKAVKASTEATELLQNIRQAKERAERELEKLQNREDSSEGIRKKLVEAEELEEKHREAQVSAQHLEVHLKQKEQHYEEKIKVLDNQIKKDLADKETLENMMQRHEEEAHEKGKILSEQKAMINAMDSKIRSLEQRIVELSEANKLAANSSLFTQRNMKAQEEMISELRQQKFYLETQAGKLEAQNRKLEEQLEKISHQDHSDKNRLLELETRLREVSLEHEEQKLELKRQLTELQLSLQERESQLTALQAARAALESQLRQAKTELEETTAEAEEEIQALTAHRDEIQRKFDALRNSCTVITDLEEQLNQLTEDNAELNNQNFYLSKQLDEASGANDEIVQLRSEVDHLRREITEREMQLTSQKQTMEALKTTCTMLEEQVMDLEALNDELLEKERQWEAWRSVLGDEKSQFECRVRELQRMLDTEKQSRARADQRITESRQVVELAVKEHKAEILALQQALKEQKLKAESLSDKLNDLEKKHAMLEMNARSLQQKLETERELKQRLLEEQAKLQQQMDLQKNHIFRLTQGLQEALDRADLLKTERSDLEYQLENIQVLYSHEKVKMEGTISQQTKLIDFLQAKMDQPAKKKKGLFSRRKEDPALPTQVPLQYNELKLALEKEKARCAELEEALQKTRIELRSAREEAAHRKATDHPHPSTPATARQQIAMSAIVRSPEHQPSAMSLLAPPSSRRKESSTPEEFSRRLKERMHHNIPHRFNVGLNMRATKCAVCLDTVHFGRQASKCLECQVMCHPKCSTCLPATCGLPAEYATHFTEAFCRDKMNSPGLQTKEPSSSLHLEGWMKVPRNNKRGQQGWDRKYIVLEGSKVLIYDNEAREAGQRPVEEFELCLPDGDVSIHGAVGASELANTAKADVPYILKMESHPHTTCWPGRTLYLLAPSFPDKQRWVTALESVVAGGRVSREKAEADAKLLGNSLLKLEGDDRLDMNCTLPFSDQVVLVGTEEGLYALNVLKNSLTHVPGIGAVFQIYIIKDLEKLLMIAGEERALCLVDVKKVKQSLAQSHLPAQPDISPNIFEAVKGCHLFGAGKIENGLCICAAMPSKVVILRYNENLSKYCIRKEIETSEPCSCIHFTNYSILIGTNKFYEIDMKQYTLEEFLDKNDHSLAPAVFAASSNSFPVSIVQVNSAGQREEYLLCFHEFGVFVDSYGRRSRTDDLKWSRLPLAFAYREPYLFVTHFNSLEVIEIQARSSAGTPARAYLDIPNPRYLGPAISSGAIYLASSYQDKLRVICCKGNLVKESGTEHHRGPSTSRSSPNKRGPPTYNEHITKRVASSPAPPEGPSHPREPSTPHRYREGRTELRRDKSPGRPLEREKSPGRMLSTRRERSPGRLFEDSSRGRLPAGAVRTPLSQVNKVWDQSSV
T3 sequence (Q13464 whole entry): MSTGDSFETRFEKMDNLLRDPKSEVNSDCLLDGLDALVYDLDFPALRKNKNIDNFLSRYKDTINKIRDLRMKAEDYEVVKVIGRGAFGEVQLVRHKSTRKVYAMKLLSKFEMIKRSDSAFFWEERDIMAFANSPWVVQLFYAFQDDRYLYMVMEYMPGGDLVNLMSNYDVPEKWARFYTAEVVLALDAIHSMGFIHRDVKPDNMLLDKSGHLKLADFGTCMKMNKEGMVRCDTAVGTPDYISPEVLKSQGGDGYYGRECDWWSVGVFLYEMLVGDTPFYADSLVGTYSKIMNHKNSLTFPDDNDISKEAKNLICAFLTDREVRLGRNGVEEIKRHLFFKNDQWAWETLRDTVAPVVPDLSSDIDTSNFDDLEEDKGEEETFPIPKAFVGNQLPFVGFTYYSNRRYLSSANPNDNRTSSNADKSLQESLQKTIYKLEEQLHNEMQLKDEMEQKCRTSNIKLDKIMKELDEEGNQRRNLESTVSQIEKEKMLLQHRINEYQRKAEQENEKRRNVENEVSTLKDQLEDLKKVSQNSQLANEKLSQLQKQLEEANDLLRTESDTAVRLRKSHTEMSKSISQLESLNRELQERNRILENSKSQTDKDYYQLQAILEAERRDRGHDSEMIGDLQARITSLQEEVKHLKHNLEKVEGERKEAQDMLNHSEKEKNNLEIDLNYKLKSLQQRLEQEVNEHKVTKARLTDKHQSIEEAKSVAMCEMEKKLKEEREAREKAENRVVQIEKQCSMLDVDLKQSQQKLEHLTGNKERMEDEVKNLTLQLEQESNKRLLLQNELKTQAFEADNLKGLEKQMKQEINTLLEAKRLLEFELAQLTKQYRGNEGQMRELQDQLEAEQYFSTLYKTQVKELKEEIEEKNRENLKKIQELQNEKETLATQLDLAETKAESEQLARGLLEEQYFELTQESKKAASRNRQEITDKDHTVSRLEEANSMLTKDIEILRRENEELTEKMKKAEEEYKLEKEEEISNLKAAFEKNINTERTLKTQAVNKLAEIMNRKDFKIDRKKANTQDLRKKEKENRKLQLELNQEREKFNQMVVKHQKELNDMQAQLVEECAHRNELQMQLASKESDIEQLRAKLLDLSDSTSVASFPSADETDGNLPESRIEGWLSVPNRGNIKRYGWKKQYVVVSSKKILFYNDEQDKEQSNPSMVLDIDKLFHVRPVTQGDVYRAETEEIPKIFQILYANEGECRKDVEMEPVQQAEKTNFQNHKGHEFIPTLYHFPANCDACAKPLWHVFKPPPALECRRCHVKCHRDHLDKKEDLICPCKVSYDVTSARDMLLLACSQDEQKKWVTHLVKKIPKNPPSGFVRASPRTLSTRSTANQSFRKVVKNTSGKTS

What is called Kd is the equilibrium constant for the complex coming apart. The term CC50 denotes the concentration at which the toxic effect on the cells reaches its halfway point. Lower therefore signals greater toxicity to the cells. By IC50 is commonly meant the midpoint of a concentration-inhibition curve. Higher therefore signals weaker potency. For `C[C@@H]1CN(C)CC[C@@H]1c1cc(-c2ccncc2)c(-c2ccc(F)cc2)[nH]1.Cl.Cl` [RUPB-61, 4-{5-[(3S,4S)-1,3-Dimethylpiperidin-4-yl]-2-(4-fluorophenyl)-1H-pyrrol-3-yl}pyridine Dihydrochloride], in data set [1], the “IC50 against PfPKG variants, RUPB-60 compared with RUPB-61” value is “similar”. Also, the Kd in data set [2] was 13 nM; in [3], 5.2 nM. The CC50 at 3 days in data set [4] is more than 20000 nM. For the same compound, the values for the IC50 in [5] and in data set [11] were 170 nM and 190 nM, respectively. In data set [6], the “IC50 against DHA-sensitive CamWT compared with DHA-resistant CamC580Y” value is listed as “similar”. Moreover, the “displacement of control ligand for ROCK1” value in data set [7] is given as more than 99%. In addition, the “displacement of control ligand for ROCK2” value in data set [8] is more than 99%. For the same compound, the “displacement of control ligand for CIT” value in data set [9] is listed as more than 99%. Also, the first-pass metabolism result in data set [10] is listed as “minimal”. Moreover, in data set [12], the “activity against P. berghei sporozoites infecting HepG2 cells” value is on record as “active”.
